Reference: patent US12637413B2, “Fatty acid amide hydrolase (FAAH) cleavable prodrugs of thyromimetics and combination with peripherally restricted FAAH inhibitors” (Autobahn Therapeutics, Inc., priority 2021, dated 2026)

Key:
[1] = biological target: T1, recombinant human FAAH (rhFAAH) (Homo sapiens, UniProt O00519); assay: FAAH substrate evaluation (acid metabolite formation); type: biochemical; settings: observed rate constant for acid metabolite formation; 0.5 ng/μL rhFAAH, 1 μM test compound, room temperature, 0-60 minutes
T1 construct: purchased Cayman Chemical (Ann Arbor, MI, USA)
T1 sequence (O00519 1-579): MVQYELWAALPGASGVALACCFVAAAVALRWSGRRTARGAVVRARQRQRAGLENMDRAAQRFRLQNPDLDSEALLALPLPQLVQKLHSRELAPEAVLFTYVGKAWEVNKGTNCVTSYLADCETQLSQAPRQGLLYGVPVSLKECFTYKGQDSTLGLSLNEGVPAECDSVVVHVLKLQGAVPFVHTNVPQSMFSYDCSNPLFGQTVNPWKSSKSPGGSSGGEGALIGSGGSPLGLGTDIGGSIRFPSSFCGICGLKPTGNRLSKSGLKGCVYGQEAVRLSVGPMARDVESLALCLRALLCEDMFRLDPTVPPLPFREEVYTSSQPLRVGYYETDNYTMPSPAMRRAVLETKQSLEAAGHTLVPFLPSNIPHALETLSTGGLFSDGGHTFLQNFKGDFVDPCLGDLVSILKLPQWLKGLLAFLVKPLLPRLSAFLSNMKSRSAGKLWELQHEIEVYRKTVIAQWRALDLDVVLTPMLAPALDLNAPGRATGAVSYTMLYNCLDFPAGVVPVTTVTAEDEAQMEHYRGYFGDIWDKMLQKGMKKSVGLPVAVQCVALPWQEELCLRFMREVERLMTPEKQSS

FAAH = biological target: T2, FAAH (Mus musculus, UniProt O08914); assay: tissue distribution after co-dosing prodrug ABX-002 with or without PFI or GFI; type: in vivo, mice; settings: plasma, liver and brain, co-dosing with PFI or GFI
T2 construct: from tissue; host or cells: living mice; plasma, liver and brain sampled
T2 sequence (O08914 1-579): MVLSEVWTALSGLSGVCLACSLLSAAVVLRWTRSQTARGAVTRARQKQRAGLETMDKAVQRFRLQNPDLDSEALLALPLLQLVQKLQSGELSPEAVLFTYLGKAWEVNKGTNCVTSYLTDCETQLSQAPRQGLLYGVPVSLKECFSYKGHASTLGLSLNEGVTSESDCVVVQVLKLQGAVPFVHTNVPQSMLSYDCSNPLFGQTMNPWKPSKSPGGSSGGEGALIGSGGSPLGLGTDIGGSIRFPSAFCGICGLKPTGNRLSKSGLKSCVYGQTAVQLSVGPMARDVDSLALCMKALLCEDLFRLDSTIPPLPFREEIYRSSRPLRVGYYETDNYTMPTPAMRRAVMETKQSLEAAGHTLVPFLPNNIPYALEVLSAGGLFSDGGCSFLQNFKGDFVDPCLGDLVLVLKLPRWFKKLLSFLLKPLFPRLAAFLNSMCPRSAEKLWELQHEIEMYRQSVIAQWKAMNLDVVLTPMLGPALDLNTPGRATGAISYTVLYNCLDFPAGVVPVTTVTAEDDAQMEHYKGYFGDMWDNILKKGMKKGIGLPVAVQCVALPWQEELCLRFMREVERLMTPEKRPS
Protocol: The ability of globally-penetrant and peripherally-restricted FAAH inhibitors (GFI & PFI, respectively) to alter distribution of ABX-002 and ABX-002A was assessed.
Table 5 depicts the inhibition of active metabolite (LL-650177 or PF-044578454) in AUC in the plasma, liver, and brain after prodrug (ABX-002) co-dosing. Tissue distribution studies in mice confirm global & peripheral inhibition of FAAH.

CNC(=O)COc1cc(Cl)c(Cc2ccc(O)c(C(C)C)c2)c(Cl)c1 [Compound 1]
ke [1]: A (ke is more than or equal to 0.1) | prodrug levels with FAAH inhibition (FAAH): did not change or slightly increased
